One assay deals with T1, HCV NS3/4A wild type (Hepatitis C virus genotype 1b, UniProt Q9WMX2).
T1 construct: HCV NS3/4A wild type (wt) was incubated for 1 hr at a 10× fold access of test compound to protein; purchased Bioenza, Calif
Description: Mass spectrometric analysis of covalent modification (MALDI-TOF). It is filed as binding. To be noted: 10× excess of test compound to protein; for Covalent modification of HCV NS3/4A wild type: MALDI-TOF. The procedure:
Mass spectrometric analysis of HCV wild type or HCV variant C159S in the presence of test compound is performed. 100 pmols of HCV wild type (Bioenza, Calif.) is incubated with test compound for 1 hr and 3 hrs at 10-fold access of test compound to protein. 1 ul aliquots of the samples (total volume of 4.24 ul) are diluted with 10 ul of 0.1% TFA prior to micro C4 ZipTipping directly onto the MALDI target using Sinapinic acid as the desorption matrix (10 mg/mL in 0.1% TFA:Acetonitrile 50:50). Analyses are performed on a Shimadzu Biotech Axima TOF2 (Shimadzu Instruments) matrix-assisted-laser desorption/ionization Time-of-Flight (MALDI-TOF) mass spectrometer. The same procedure is carried out on 100 pmols of HCV C159S mutant of HCV protease for 3 hrs at 10-fold excess of test compound to protein.
As depicted in FIGS. 1 and 2, mass spectrometric analysis of HCV wild type in the presence of test compounds I-1 and I-25 was performed using the following protocol: HCV NS3/4A wild type (wt) was incubated for 1 hr at a 10× fold access of test compound to protein. 2 ul aliquots of the samples were diluted with 10 ul of 0.1% TFA prior to micro C4 ZipTipping directly onto the MALDI target using Sinapinic acid as the desorption matrix (10 mg/ml in 0.1% TFA:Acetonitrile 50:50). For intact protein mass measurement the instrument was set in linear mode using a pulsed extraction setting of 24,500 and apomyoglobin as the standard to calibrate the instrument.

Assay [1] concerns the target T2, HCV NS3/4A 1b protease A156T (Hepatitis C virus genotype 1b, UniProt Q9WMX2, A1182T).
T2 construct: 10× stocks of NS3/4A protease enzyme from Bioenza (Mountain View, Calif.); purchased Bioenza (Mountain View, Calif.)
As to the kind of experiment: HCV protease FRET assay (IC50_APP), Example 16. The format is biochemical. As for the experimental part:
(§1) The following protocol was used to generate “apparent” IC50 (IC50 APP) values as depicted in Table 6, below. […] 5 μL of each enzyme were added to Corning (#3575) 384-well, black, microtiter plates (Corning, N.Y.) after spotting a 0.5 μL volume of 50% DMSO and serially diluted compounds prepared in 50% DMSO. Protease reactions were immediately started after enzyme addition with the addition of 45 μL of the FRET substrate and monitored for 60-90 minutes at λex485/λem520 in a Synergy^4 plate reader from BioTek (Winooski, Vt.). At the conclusion of each assay, progress curves from each well were examined for linear reaction kinetics and fit statistics (R^2, 95% confidence intervals, absolute sum of squares).
(§2) The compound numbers correspond to the compound numbers in Table 3. […] ;

For assay [2], the target named is T3, HCV NS3/4A 1b protease wild type (Hepatitis C virus genotype 1b, UniProt Q9WMX2).
T3 construct: 10× stocks of NS3/4A protease enzyme from Bioenza (Mountain View, Calif.); purchased Bioenza (Mountain View, Calif.)
Description: HCV protease FRET assay (IC50_APP), Example 16. It is filed as biochemical. As for the experimental part:
as §1, §2

Assay [3] concerns the target T4, HCV NS3/4A 1b protease D168A (Hepatitis C virus genotype 1b, UniProt Q9WMX2, D1194A).
T4 construct: 10× stocks of NS3/4A protease enzyme from Bioenza (Mountain View, Calif.); purchased Bioenza (Mountain View, Calif.)
Description: HCV protease FRET assay (IC50_APP), Example 16. It is filed as biochemical. The procedure: as §1, §2

For assay [4], the system named is HCV RNA replicon in cell line ET (luc-ubi-neo/ET), human Huh7 hepatoma. Description: HCV RNA replicon assay, Example 14 Method A. The note with it: Hepatitis C virus, Huh-7, assay of Example 14, 72 hr; for IC50: read-out: Inhibition, Replicon (IC50); for IC90: read-out: Inhibition, Replicon, IC90 value. It is filed as cell-based. The procedure:
The compounds were assayed to evaluate the antiviral activity and cytotoxicity of compounds in vitro using HCV RNA replicons. This assay used the cell line ET (luc-ubi-neo/ET), which is a human Huh7 hepatoma cell line that contains an HCV RNA replicon with a stable luciferase (Luc) reporter and three cell culture-adaptive mutations. […]
The ET cell line was grown in Dulbecco's modified essential media (DMEM), 10% fetal bovine serum (FBS), 1% penicillin-streptomycin (pen-strep), 1% glutamine, 250 μg/mL G418 in a 5% CO2 incubator at 37° C. All cell culture reagents were obtained from Mediatech (Manassas, Va.). Cells were trypsinized (1% trypsin:EDTA) and plated out at 5×10^3 cells/well in white 96-well assay plates (Costar) dedicated to cell number (cytotoxicity) or antiviral activity assessments. Drugs were added at six 3-fold concentrations each and the assay was run in DMEM, 5% FBS, 1% pen-strep, 1% glutamine. Human interferon alpha-2b (PBL Biolabs, New Brunswick, N.J.) was included in each run as a positive control compound. Cells were processed 72 hr post drug addition when the cells are still subconfluent. Antiviral activity was measured by analyzing replicon-derived luciferase activity using the Steady-Glo Luciferase Assay System (Promega, Madison, Wis.) according to manufacturer's instruction. The number of cells in each well was determined by CytoTox-1 reagent (Promega). Compound profile was derived by calculating applicable EC50 (effective concentration inhibiting virus replication by 50%), EC90 (effective concentration inhibiting virus replication by 90%), IC50 (concentration decreasing cell viability by 50%) and SI50 (selective index: […]) values.
On the technique in general: Replicon systems follow genome replication, usually without infectious particles.

The target of assay [5] is T5, HCV NS3/4A 1b protease R155K (Hepatitis C virus genotype 1b, UniProt Q9WMX2, R1181K).
T5 construct: 10× stocks of NS3/4A protease enzyme from Bioenza (Mountain View, Calif.); purchased Bioenza (Mountain View, Calif.)
As to the kind of experiment: HCV protease FRET assay (IC50_APP), Example 16. The note with it: reaction started immediately after enzyme addition, read-out: Inhibition (apparent IC50, IC50_APP), HCV R155K. The format is biochemical. The procedure: as §1, §2

For `C=C[C@@H]1C[C@]1(NC(=O)[C@@H]1C[C@@H](OC(=O)N2Cc3cccc(F)c3C2)CN1C(=O)[C@H](CNS(=O)(=O)C=C)NC(=O)OC(C)(C)C)C(=O)NS(=O)(=O)C1CC1` [Compound I-2, (3R,5S)-1-((S)-2-(tert-butoxycarbonylamino)-3-(vinylsulfonamido)propanoyl)-5-((1R,2S)-1-(cyclopropylsulfonylcarbamoyl)-2-vinylcyclopropylcarbamoyl)pyrrolidin-3-yl 4-fluoroisoindoline-2-carboxylate], the “Covalent modification of HCV NS3/4A wild type” value (shortened to “Covalent modification”) on HCV NS3/4A wild type is “measurable covalent modification”. For the same compound, the IC50 (commonly the point on the concentration scale where inhibition reaches its midpoint) in assay [1] is less than 10 nM; in assay [2] it was less than 10 nM; in assay [3], less than 10 nM; in assay [4], 10 to 100 nM. For the same compound, the IC90 (usually the concentration needed for an effect of 90%) in assay [4] was 100 to 1000 nM.
On to `C=CC(=O)NCC[C@H](NC(=O)OC(C)(C)C)C(=O)N1C[C@H](OC(=O)N2Cc3cccc(F)c3C2)C[C@H]1C(=O)N[C@]1(C(=O)NS(=O)(=O)C2CC2)C[C@H]1C=C` [Compound I-5, (3R,5S)-1-((S)-4-acrylamido-2-(tert-butoxycarbonylamino)butanoyl)-5-((1R,2S)-1-(cyclopropylsulfonylcarbamoyl)-2-vinylcyclopropylcarbamoyl)pyrrolidin-3-yl 4-fluoroisoindoline-2-carboxylate], for which the “Covalent modification” value at HCV NS3/4A wild type is given as “measurable covalent modification”. The IC50 in assay [1] was 10 to 100 nM; in assay [2], less than 10 nM; in assay [3] it was 100 to 1000 nM; in assay [4], 10 to 100 nM. The IC90 in assay [4] was 100 to 1000 nM.
Turning to `C=CC(=O)N(C)CC[C@H](NC(=O)OC(C)(C)C)C(=O)N1C[C@H](OC(=O)N2Cc3cccc(F)c3C2)C[C@H]1C(=O)N[C@]1(C(=O)NS(=O)(=O)C2CC2)C[C@H]1C=C` [Compound I-13, (3R,5S)-1-((S)-2-(tert-butoxycarbonylamino)-4-(N-methylacrylamido)butanoyl)-5-((1R,2S)-1-(cyclopropylsulfonylcarbamoyl)-2-vinylcyclopropylcarbamoyl)pyrrolidin-3-yl 4-fluoroisoindoline-2-carboxylate], the “Covalent modification” value at HCV NS3/4A wild type is “measurable covalent modification”. In addition, the IC50 was less than 10 nM in assay [1], less than 10 nM in assay [2], 100 to 1000 nM in assay [3] and 10 to 100 nM in assay [4]. Besides, the IC90 in assay [4] fell in the range of 100 to 1000 nM.
In the case of `C=CC(=O)N(C)C[C@H](NC(=O)OC1CCCC1)C(=O)N1C[C@H](OC(=O)N2Cc3cccc(F)c3C2)C[C@H]1C(=O)N[C@]1(C(=O)NS(=O)(=O)C2CC2)C[C@H]1C=C` [Compound I-20, (3R,5S)-1-((S)-2-(cyclopentyloxycarbonylamino)-3-(N-methylacrylamido)propanoyl)-5-((1R,2S)-1-(cyclopropylsulfonylcarbamoyl)-2-vinylcyclopropylcarbamoyl)pyrrolidin-3-yl 4-fluoroisoindoline-2-carboxylate], at HCV NS3/4A wild type, the “Covalent modification” value was “measurable covalent modification”. Also, the IC50 in assay [1] was less than 10 nM; in assay [2], less than 10 nM; in assay [3], 10 to 100 nM; in assay [4], 10 to 100 nM. Further, in assay [4], the IC90 is 100 to 1000 nM.
`C=C[C@@H]1C[C@]1(NC(=O)[C@@H]1C[C@@H](OC(=O)N2Cc3cccc(F)c3C2)CN1C(=O)[C@@H](NC(=O)OC(C)(C)C)[C@@H](C)OC(=O)/C=C/C)C(=O)NS(=O)(=O)C1CC1` [Compound I-22, (3R,5S)-1-((2S,3R)-3-((E)-but-2-enoyloxy)-2-(tert-butoxycarbonylamino)butanoyl)-5-((1R,2S)-1-(cyclopropylsulfonylcarbamoyl)-2-vinylcyclopropylcarbamoyl)pyrrolidin-3-yl-4-fluoroisoindoline-2-carboxylate]: the “Covalent modification” value at HCV NS3/4A wild type was “measurable covalent modification”. The IC50 was 10 to 100 nM in assay [5]; 10 to 100 nM in assay [1]; less than 10 nM in assay [2]; 100 to 1000 nM in assay [3]; 10 to 100 nM in assay [4]. Moreover, the IC90 in assay [4] lay within 10 to 100 nM.
For the compound `C=C[C@@H]1C[C@]1(NC(=O)[C@@H]1C[C@@H](OC(=O)N2Cc3cccc(F)c3C2)CN1C(=O)[C@H](COC(=O)C(=C)NC(=O)OC(C)(C)C)NC(=O)OC(C)(C)C)C(=O)NS(=O)(=O)C1CC1` [Compound I-23, (3R,5S)-1-((S)-2-(tert-butoxycarbonylamino)-3-(2-(tert-butoxycarbonylamino)acryloyloxy)propanoyl)-5-((1R,2S)-1-(cyclopropylsulfonylcarbamoyl)-2-vinylcyclopropylcarbamoyl)pyrrolidin-3-yl 4-fluoroisoindoline-2-carboxylate], the “Covalent modification” value at HCV NS3/4A wild type is given as “measurable covalent modification”. Also, the IC50 is less than 10 nM in assay [1], less than 10 nM in assay [2], less than 10 nM in assay [3] and 10 to 100 nM in assay [4]. Also, the IC90 in assay [4] was 100 to 1000 nM.
Take `C=C[C@@H]1C[C@]1(NC(=O)[C@@H]1C[C@@H](OC(=O)N2Cc3cccc(F)c3C2)CN1C(=O)[C@H](CCC(=O)C=C(C)C)NC(=O)OC(C)(C)C)C(=O)NS(=O)(=O)C1CC1` [Compound I-25, (3R,5S)-1-((S)-2-(tert-butoxycarbonylamino)-7-methyl-5-oxooct-6-enoyl)-5-((1R,2S)-4-(cyclopropylsulfonylcarbamoyl)-2-vinylcyclopropylcarbamoyl)pyrrolidin-3-yl 4-fluoroisoindoline-2-carboxylate]: the “Covalent modification” value at HCV NS3/4A wild type is on record as “conversion to a new peak”. In addition, at HCV NS3/4A wild type (1 hr), the “Mass increase of new protein species vs protein with no compound” value worked out at 773 Da. For the same compound, the IC50 is 10 to 100 nM in assay [5]; 10 to 100 nM in assay [1]; less than 10 nM in assay [2]; 100 to 1000 nM in assay [3]; less than 10 nM in assay [4]. Further, the 90% effect concentration (IC90) in assay [4] lay in the range of 10 to 100 nM.
For the compound `C=C[C@@H]1C[C@]1(NC(=O)[C@@H]1CC(OC(=O)N2Cc3cccc(F)c3C2)CN1C(=O)[C@H](CCC(=O)C(=C)C)NC(=O)OC(C)(C)C)C(=O)NS(=O)(=O)C1CC1` (stereo partly drawn) [Compound I-27], the “Covalent modification” value on HCV NS3/4A wild type was “measurable covalent modification”. Also, the IC50 is less than 10 nM in assay [1], less than 10 nM in assay [2], less than 10 nM in assay [3] and 10 to 100 nM in assay [4]. Besides, the IC90 in assay [4] lay in the range of 100 to 1000 nM.

The record behind these values is patent publication US8293705B2, “HCV protease inhibitors and uses thereof” (Avila Therapeutics, Inc., priority 2007, dated 2012).
